The values that follow come from ChEMBL document CHEMBL6182949 (J Med Chem, 2025).

The structures appear in SMILES notation. Calls of active or inactive are those of the source. No cut-off for these calls is given here.

The inhibition is the change of the read-out against control, counted positive when it falls. The low end stands for a weak effect, the high end for a strong effect.

Data set [1] concerns the target T1, CYP2B6 (Homo sapiens, UniProt P20813).
T1 sequence (P20813 whole entry): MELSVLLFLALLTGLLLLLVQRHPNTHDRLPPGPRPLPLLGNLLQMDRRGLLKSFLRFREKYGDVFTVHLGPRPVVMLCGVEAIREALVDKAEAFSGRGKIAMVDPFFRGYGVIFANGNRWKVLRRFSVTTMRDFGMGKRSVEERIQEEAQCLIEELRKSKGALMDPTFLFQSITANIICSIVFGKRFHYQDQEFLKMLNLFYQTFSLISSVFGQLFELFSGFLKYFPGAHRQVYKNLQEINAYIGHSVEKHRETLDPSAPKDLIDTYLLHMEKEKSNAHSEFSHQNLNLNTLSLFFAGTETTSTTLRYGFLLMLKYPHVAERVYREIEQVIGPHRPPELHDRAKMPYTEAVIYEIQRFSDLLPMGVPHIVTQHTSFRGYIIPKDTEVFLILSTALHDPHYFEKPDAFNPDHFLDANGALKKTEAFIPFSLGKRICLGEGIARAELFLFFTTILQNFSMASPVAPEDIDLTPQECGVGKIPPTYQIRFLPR
In words: Inhibition of CYP2B6 in human liver microsome using bupropion as substrate at 10 uM preincubated for 5 mins followed by NADPH addition and measured after 10 mins by LC-MS/MS analysis relative to control. The conditions noted are these: human liver microsomes, probe bupropion, time 15 min. The class given is ADME. (In general: Liver microsomes are a subcellular fraction often used to study metabolism.)

For data set [2], the system named is Mus musculus. In words: Anti-arthritic activity against collagen-induced arthritis DBA/1 mouse model assessed as reduction in pathological score at 100 mg/kg, po administered for 14 days. The data set is classed as functional, organism-based. Particulars: time 14.0 day.

`Cn1c(=O)n(C2CCC(=O)NC2=O)c2cccc(C#CCO[C@H]3CC[C@H](CN4CCC5(CC4)Cc4cc(NC(=O)c6coc7cccnc67)c(N6CCC(CO)CC6)cc4O5)CC3)c21` (some centres not stated) gave an inhibition at 10 min, 10 µM in data set [1] of 0.13%. For the same molecule, in data set [2], the result was Active.
